Source: ChEMBL document CHEMBL1158419, “3D-QSAR study of 8-azabicyclo[3.2.1] octane analogs antagonists of cholinergic receptor” (Bioorg Med Chem Lett, 2009)

Experiment: Antagonist activity at muscarinic receptor
Assay type: functional

| Compound | pKi |
| --- | --- |
| C=CCN1C2CC[C@@H]1C[C@H](OC(c1ccc(F)cc1)c1ccc(F)cc1)C2 (single isomer, unassigned) | 2.25 |
| CCCCCCOC(=O)C(C(=O)O[C@@H]1C[C@@H]2[C@H]3O[C@H]3[C@H](C1)[N+]2(C)C)c1ccccc1 (some centres not stated) | 7.33 |
| C[N+]1(C)C2CCC1CC(OC(=O)C(CC(=O)O[C@H]1C[C@H]3CC[C@@H](C1)[N+]3(C)C)c1ccccc1)C2 (some centres not stated) | 7.18 |
| CN1[C@@H]2CC[C@H]1C[C@@H](OC(c1ccccc1)c1ccccc1)C2 [BENZTROPINE] | 0.33 |
| CN1[C@@H]2C[C@@H](OC(=O)C(c3ccccc3)C3CCCC3)C[C@H]1[C@@H]1O[C@@H]12 (some centres not stated) | 7.14 |
| C[N+]1(C)[C@@H]2C[C@@H](OC(=O)C(C(=O)OC3CCCCC3)c3ccccc3)C[C@H]1[C@@H]1O[C@@H]12 (some centres not stated) | 8.01 |
| CN1[C@@H]2C[C@@H](OC(=O)[C@H](CO)c3ccccc3)C[C@H]1[C@@H]1O[C@@H]12 [SCOPOLAMINE] | 8.95 |
| COC(=O)C(C(=O)O[C@@H]1C[C@@H]2[C@H]3O[C@H]3[C@H](C1)[N+]2(C)C)(c1ccccc1)C1CCCC1 (some centres not stated) | 7.28 |
| CN1[C@@H]2CC[C@H]1C[C@@H](OC(=O)C(CO)c1ccccc1)C2 (some centres not stated) [ATROPINE] | 9.34 |
| CN1C2CC[C@@H]1C[C@H](OC(c1ccc(F)cc1)c1ccc(F)cc1)C2 (single isomer, unassigned) | 1.06 |
| CCOC(=O)C(C(=O)O[C@@H]1C[C@@H]2[C@H]3O[C@H]3[C@H](C1)[N+]2(C)C)(c1ccccc1)C1CCCC1 (some centres not stated) | 7.98 |
| C[S+]([O-])COC(=O)C(O[C@@H]1CC2CC[C@H](C1)[N+]2(C)C)c1ccccc1 (single isomer, unassigned) | 7.25 |
| CCCCN1C2CC[C@@H]1C[C@H](OC(c1ccc(F)cc1)c1ccc(F)cc1)C2 (single isomer, unassigned) | 2.6 |
| Fc1ccc(C(O[C@@H]2CC3CC[C@H](C2)N3Cc2ccccc2)c2ccc(F)cc2)cc1 (single isomer, unassigned) | 3.01 |
| CCOC(=O)C(C(=O)O[C@@H]1CC2[C@H]3O[C@H]3[C@H](C1)[N+]2(C)C)c1ccccc1 (single isomer, unassigned) | 8.32 |
| COC(=O)[C@H]1[C@@H](OC(=O)c2ccccc2)C[C@@H]2CC[C@H]1N2C [COCAINE] | 4.79 |
| C[N+]1(C)[C@@H]2CC[C@H]1C[C@@H](OC(=O)CCC(C(=O)O[C@@H]1C[C@H]3CC[C@@H](C1)[N+]3(C)C)c1ccccc1)C2 (some centres not stated) | 6.5 |
